Consider 3 compounds from US4647562A, “Anti-spasmodic agents having three branch chains” (United Pharmaceuticals, Inc., priority 1985, dated 1987).

Structures can show the parent of a compound that is named as a salt. Where two headings read alike, the source gives them in different places.

One data set deals with smooth muscle. As to conditions: prior knowledge on thiphenamil hydrochloride; cited from earlier work.
In a further data set the test system is muscarinic receptors. It is filed as binding, rabbit (New Zealand White). To be noted: 1.0 × 10^-5 M compound; 0.1 nM [^3 H]QNB; 37° C., 60 minutes; pH 7.4.
Data set [1] concerns rabbit urinary bladder strip. In words: Relaxation of bethanechol-contracted rabbit urinary bladder strip preparation. As to conditions: for inhibition at 100 µM / inhibition at 10 µM / inhibition at 1 µM / inhibition at 0.1 µM / inhibition at 0.01 µM: Oryctolagus cuniculus. As for the experimental part:
The pharmacological actions of three anti-spasmodic compounds were studied in a rabbit urinary bladder strip preparation. In general, longitudinal strips were prepared from the base of freshly isolated rabbit bladders and were then suspended under near-physiological conditions in tissue baths. The strips were attached to force transducers and both contractile and relaxant activity was measured. To measure the relaxant effects on the anti-spasmodic compounds on previously-contracted bladder strips, the strips were initially exposed to the muscarinic receptor agonist bethanechol and allowed to reach a steady level of contractile activity for 20 minutes. At this point cumulative dose-responses to the various compounds were recorded. The rabbit abdomens were opened through a vertical midline incision. […] Tissues were allowed to equilibrate to a tension of 2 gm for sixty minutes during which time buffer was replaced at 20 minute intervals. […] Bethanechol was employed as the representative cholinergic agonist and, following equilibration, was added to the baths for a final concentration of 250 μM. The tissues were allowed 20 minutes to achieve a maintained level of contraction in response to bethanechol and, at this point, cumulative dose-response measurements for three anti-spasmodic compounds were started at concentrations ranging from 10^-8 M to 10^-4 M. Solutions were added in volumes up to 100 μl and were prepared fresh each day by dissolving them in distilled:deionzed water. […]

The mark [2] stands for this setting: 10^-4 moles/liter, bethanechol 250 μM.
Setting [3] is: 10^-5 moles/liter, bethanechol 250 μM.
[4] abbreviates: 10^-6 moles/liter, bethanechol 250 μM.
[5] abbreviates: 10^-7 moles/liter, bethanechol 250 μM.
Where [6] appears, read: 10^-8 moles/liter, bethanechol 250 μM.
[7] abbreviates: pH 7.4, read-out: % of maximum relaxation.
[8] abbreviates: read-out: % background relaxation.

Consider `CCN(CC)CCSC(=O)C(c1ccccc1)c1ccccc1` [Thiphenamil hydrochloride], for which, in the data set with smooth muscle, the atropinic side effects result was “without producing characteristic atropinic side effects on salivary and sweat glands, GI glands, the eye or the cardiovascular system”; the decrease spasm result was “decrease spasm of the gastrointestinal tract, biliary tract, ureter and uterus”.

For `CCN(CC)CCSC(=O)CC(C)(C)C` [t-butyl-acetyl-thio-S-(2-diethylaminoethyl)-ester.HCl], in the data set with muscarinic receptors, the “% inhibition of ^3 H[QNB] binding” value is listed as 76%. Moreover, the “Decrease in force of contraction of rabbit bladder strip” value in data set [1] (setting [2]) is recorded as 1.08 gm; in data set [1] (setting [3]), 0.22 gm; in data set [1] (setting [4]), 0.03 gm; in data set [1] (setting [5]) it was 0.00 gm; in data set [1] (setting [6]), 0.03 gm. Moreover, the “Increase in length of rabbit bladder strip” value is 3.9 cm in data set [1] (setting [2]); 0.6 cm in data set [1] (setting [3]); 0.1 cm in data set [1] (setting [4]); 0.0 cm in data set [1] (setting [5]); 0.1 cm in data set [1] (setting [6]). Further, the inhibition at 100 µM in data set [1] (pH 7.4, 10^-4 moles/liter, bethanechol 250 μM, maximal = pre-bethanechol baseline, read-out: % of maximum relaxation) came out at 98%; in data set [1] (10^-4 moles/liter, bethanechol 250 μM, read-out: % background relaxation) it was 80%. The inhibition at 10 µM came out at 15% in data set [1] (pH 7.4, 10^-5 moles/liter, bethanechol 250 μM, maximal = pre-bethanechol baseline, read-out: % of maximum relaxation) and 1.3% in data set [1] (10^-5 moles/liter, bethanechol 250 μM, read-out: % background relaxation). In addition, the inhibition at 1 µM in data set [1] (pH 7.4, 10^-6 moles/liter, bethanechol 250 μM, maximal = pre-bethanechol baseline, read-out: % of maximum relaxation) turned out to be 2.5%; in data set [1] (10^-6 moles/liter, bethanechol 250 μM, read-out: % background relaxation), 0%. The inhibition at 0.1 µM in data set [1] (pH 7.4, 10^-7 moles/liter, bethanechol 250 μM, maximal = pre-bethanechol baseline, read-out: % of maximum relaxation) came out at 0%; in data set [1] (10^-7 moles/liter, bethanechol 250 μM, read-out: % background relaxation) it was 0%. Besides, the inhibition at 0.01 µM in data set [1] (pH 7.4, 10^-8 moles/liter, bethanechol 250 μM, maximal = pre-bethanechol baseline, read-out: % of maximum relaxation) worked out at 2.5%; in data set [1] (10^-8 moles/liter, bethanechol 250 μM, read-out: % background relaxation), 0%.

`CCN(CC)CCSC(=O)C(C)(C)C` [trimethylacetyl-thio-S-(2-diethylaminoethyl)-ester.HCl]: the “% inhibition of ^3 H[QNB] binding” value in the data set with muscarinic receptors was determined as 66%. In addition, the “Decrease in force of contraction of rabbit bladder strip” value in data set [1] (setting [2]) turned out to be 0.82 gm; in data set [1] (setting [3]) it was 0.40 gm; in data set [1] (setting [4]), 0.38 gm; in data set [1] (setting [5]), 0.38 gm; in data set [1] (setting [6]) it was 0.00 gm. In addition, the “Increase in length of rabbit bladder strip” value in data set [1] (setting [2]) is reported as 4.1 cm; in data set [1] (setting [3]), 2.0 cm; in data set [1] (setting [4]) it was 1.9 cm; in data set [1] (setting [5]), 1.9 cm; in data set [1] (setting [6]) it was 0.0 cm. Besides, the inhibition at 0.01 µM in data set [1] (setting [7]) and in data set [1] (setting [8]) was 0% throughout. Also, the inhibition at 0.1 µM turned out to be 16.5% in data set [1] (setting [7]) and 14.1% in data set [1] (setting [8]). The figures for the inhibition at 1 µM in data set [1] (setting [7]) and in data set [1] (setting [8]) were 16.5% and 14.1%, respectively. Further, the inhibition at 10 µM in data set [1] (setting [7]) came to 16.5%; in data set [1] (setting [8]), 14.1%. Also, the inhibition at 100 µM turned out to be 35.7% in data set [1] (setting [7]) and 29.7% in data set [1] (setting [8]).
